In article PMC7403980, “Anti-Inflammatory Effects of the Novel PIM Kinase Inhibitor KMU-470 in RAW 264.7 Cells through the TLR4-NF-κB-NLRP3 Pathway” (International Journal of Molecular Sciences, 2020):

Key:
Type in all cases: cell-based, murine
[1] = test system: JNK; assay: LPS-induced phosphorylation of JNK in RAW 264.7 cells (Western blot); conditions: KMU-470 1 μM 24 h pre-treatment, LPS 50 ng/mL
Experimental: (§1) Figure 5 Effect of KMU-470 on LPS-induced phosphorylation of MAPKs/ IKKs/ NF-κB in RAW 264.7 cells. (A) Cells were pre-treated with 1μM of KMU-470 for 24 h and stimulated with LPS (50 ng/mL) at the indicated times. (C) Cells were pre-treated with 0.5 and 1μM of KMU-470 for 30 min prior to LPS treatment. Total proteins were isolated after 6 h exposure to LPS (50 ng/mL). The protein expression level of MAPKs, p-IKKα/β, and p-NF-κB were assessed using Western blot analyses. (B,D) The relative optical densities of MAPKs, p-IKKα/β, and p-NF-κB bands were analyzed by the Image-J program. *** p < 0.001.
(§2) RAW 264.7 cells were pre-treated with KMU-470 (0.5–1 μM/mL) for 24 h and stimulated with LPS (50 ng/mL) for 6 h. After stimulation, total cells were harvested, washed with PBS buffer, and then the total protein was extracted with a RIPA buffer (0.1 mM sodium orthovanadate, 137 mM NaCl, 15 mM EGTA, 0.1% Triton X-100, 25 mM MOPS, 15 mM MgCl2, 100 μM phenylmethylsulfonyl fluoride, and 20 μM leupeptin, adjusted to pH 7.2). […] Immunoreactive proteins were detected using the ELC Western blot detection system kit (Millipore). Signal intensity was measured using the Chemi Image documentation system (Fusion Fx7, VILBER LOUTMAT). Protein expression levels were quantified using the Image J program.

[2] = test system: pro-IL-1β; assay: LPS-induced pro-IL-1β protein expression in RAW 264.7 cells (Western blot); conditions: KMU-470 0.1, 0.5, 1 μM 30 min, LPS 50 ng/mL 6 h
Experimental: Figure 2 Effect of PIM inhibition on lipopolysaccharide (LPS)-mediated inflammatory response in RAW 264.7 cells. (A) RAW 264.7 cells transfected with negative siRNA or PIM-1 siRNA for 72 h and then treated with LPS (50 ng/mL) for 6 h. Whole cell lysates were isolated and used to measure the protein expression levels of PIM-1, pro-IL-1β, p-Bad, and β-actin by Western blot analysis. […] Total RNA was isolated, and used to measure the mRNA expression levels of IL-1b and β-actin by RT-PCR analysis. *** p < 0.001, ** p < 0.01.
Figure 6 Inhibitory effect of KMU-470 on LPS-induced up-regulation of pro-inflammatory cytokines and activation of NLRP3 inflammasome in RAW 264.7 cells. (A–C) Cells were treated with KMU-470 for 30 min and stimulated with LPS 50 ng/mL for 6 h. The levels of IL-1β, TNF-α, and IL-6 were determined using real time PCR. *** p < 0.001, *p < 0.05. (D) Cells were pre-treated with 0.1, 0.5, and 1 μM of KMU-470 for 30 min and treated with LPS 50 ng/mL for 6 h, respectively. […]
RAW 264.7 cells were pre-treated with KMU-470 (0.5–1 μM/mL) for 24 h and stimulated with LPS (50 ng/mL) for 6 h. […] Immunoreactive proteins were detected using the ELC Western blot detection system kit (Millipore). Signal intensity was measured using the Chemi Image documentation system (Fusion Fx7, VILBER LOUTMAT). Protein expression levels were quantified using the Image J program. […]

[3] = test system: pro-caspase-1; assay: Pro-caspase-1 protein expression in LPS-treated RAW 264.7 cells (Western blot); conditions: KMU-470 0.1, 0.5, 1 μM 30 min, LPS 50 ng/mL 6 h
Experimental: (§3) Figure 6 Inhibitory effect of KMU-470 on LPS-induced up-regulation of pro-inflammatory cytokines and activation of NLRP3 inflammasome in RAW 264.7 cells. (A–C) Cells were treated with KMU-470 for 30 min and stimulated with LPS 50 ng/mL for 6 h. The levels of IL-1β, TNF-α, and IL-6 were determined using real time PCR. *** p < 0.001, *p < 0.05. (D) Cells were pre-treated with 0.1, 0.5, and 1 μM of KMU-470 for 30 min and treated with LPS 50 ng/mL for 6 h, respectively. Whole cell lysates were isolated and used to measure the protein expression levels of pro-IL-1β and β-actin by Western blot analysis. (E) Cells were pre-treated with 0.1, 0.5, and 1 μM of KMU-470 for 30 min and treated with LPS 50 ng/mL for 6 h, respectively. Whole cell lysates were isolated and used to measure the protein expression levels of […], ASC, pro-caspase-1, pro-IL-1β, and β-actin by Western blot analysis.
RAW 264.7 cells were pre-treated with KMU-470 (0.5–1 μM/mL) for 24 h and stimulated with LPS (50 ng/mL) for 6 h. […] Immunoreactive proteins were detected using the ELC Western blot detection system kit (Millipore). Signal intensity was measured using the Chemi Image documentation system (Fusion Fx7, VILBER LOUTMAT). Protein expression levels were quantified using the Image J program.

[4] = test system: NF-κB; assay: LPS-induced phosphorylation of NF-κB in RAW 264.7 cells (Western blot); conditions: KMU-470 0.5 and 1 μM 30 min, LPS 50 ng/mL 6 h
Experimental: as §1, §2

[5] = test system: TNF-α; assay: LPS-induced TNF-α mRNA in RAW 264.7 cells (real time PCR); conditions: KMU-470 30 min, LPS 50 ng/mL 6 h
Experimental: as §3
Total RNA was isolated using TriZol reagent (Life Technologies; Gaithersburg, MD, USA) according to the manufacturer’s protocol. Total RNA absorbance was quantified by using Nanodrop 1000 (Thermo Fisher Scientific, Waltham, MA, USA). […] Real time quantitative PCR was performed by using the SYBR green premix (Roche Diagnostics, Mannheim, Germany) on the LightCycler 480 PCR (system Roche Diagnostics, Mannheim, Germany). […]

[6] = test system: MyD88; assay: LPS-induced MyD88 protein expression in RAW 264.7 cells (Western blot); conditions: KMU-470 0.5 and 1 μM 30 min, LPS 6 h
Experimental: Figure 4 Inhibitory effect of KMU-470 on LPS-induced TLR4 and MyD88 protein expression in RAW 264.7 cells. (A,B) Cells were pre-treated with 0.5 and 1 μM of KMU-470 for 30 min prior to LPS treatment. Then, total protein was isolated after 6 h exposure to LPS. The protein expression level of TLR4 and MyD88 were assessed using Western blot analysis. (C,D) The relative optical densities of TLR4 and MyD88 bands were analyzed by the Image-J program. *** p < 0.001.
as §2, with “7.2). The cell culture media supernatants were precipitated using TCA (trichloroacetic acid, protocol by Luis Sanchez 2001). A BCA protein assay kit (Thermo Scientific, Wilmington, USA) was used for the determination of the protein concentration.” for “7.2).”

CN(C)CCNc1cncc(-c2ccc3c(c2)/C(=C/c2cnc[nH]2)C(=O)N3)n1 [KMU-470, (Z)-3-((1H-Imidazol-5-yl)methylene)-5-(6-((2-(dimethylamino)ethyl)amino)pyrazin-2-yl)indolin-2-one]
LPS-induced phosphorylation of JNK [1]: significantly inhibited
LPS-induced up-regulation of IL-1β protein ([2]; RAW 264.7 cells (Figure 6D)): reduced
Expression of pro-IL-1β protein compared with LPS alone group ([2]; RAW 264.7 cells (Figure 6E)): marked decrease
Pro-caspase-1 expression [3]: not changed
LPS-induced phosphorylation of NF-κB [4]: significantly reduced
LPS-induced up-regulation of TNF-α (mRNA) [5]: significantly decreased
Up-regulation of MyD88 protein by LPS [6]: suppressed
